Source: BindingDB's records for patent US20250313563 (The Broad Institute, 2025)
Values joined by “and” are separate entries in the source; they are usually repeats but may differ in a detail not shown here. Equal values may be shown once.

How the values were obtained:
[1] = target: Glycogen synthase kinase-3 alpha (Homo sapiens, UniProt P49840); experiment: TR-FRET Assay
Procedure, shortened: (§1)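 Signal is measured as TR-FRET between a terbium anti-phospho-Ser641 antibody and streptavidin-d2, added after an EDTA quench. Compounds are preincubated 30 min in assay buffer.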

[2] = target: Glycogen synthase kinase-3 beta (Homo sapiens, UniProt P49841); experiment: TR-FRET Assay
Sequence of Glycogen synthase kinase-3 beta (P49841 whole entry): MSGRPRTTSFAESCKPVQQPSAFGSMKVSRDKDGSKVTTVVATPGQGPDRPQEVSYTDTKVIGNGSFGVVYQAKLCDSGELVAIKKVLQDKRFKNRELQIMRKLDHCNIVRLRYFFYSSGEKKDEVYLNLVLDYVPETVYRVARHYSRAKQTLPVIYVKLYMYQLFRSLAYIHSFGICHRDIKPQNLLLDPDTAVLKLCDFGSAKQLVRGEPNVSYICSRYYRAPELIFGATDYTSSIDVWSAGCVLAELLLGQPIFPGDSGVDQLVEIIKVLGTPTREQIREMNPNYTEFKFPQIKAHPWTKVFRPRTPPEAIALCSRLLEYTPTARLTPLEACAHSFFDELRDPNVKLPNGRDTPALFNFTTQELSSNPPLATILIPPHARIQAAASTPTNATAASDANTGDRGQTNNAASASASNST
Procedure, shortened: as §1

Sequence of Glycogen synthase kinase-3 alpha (P49840 whole entry): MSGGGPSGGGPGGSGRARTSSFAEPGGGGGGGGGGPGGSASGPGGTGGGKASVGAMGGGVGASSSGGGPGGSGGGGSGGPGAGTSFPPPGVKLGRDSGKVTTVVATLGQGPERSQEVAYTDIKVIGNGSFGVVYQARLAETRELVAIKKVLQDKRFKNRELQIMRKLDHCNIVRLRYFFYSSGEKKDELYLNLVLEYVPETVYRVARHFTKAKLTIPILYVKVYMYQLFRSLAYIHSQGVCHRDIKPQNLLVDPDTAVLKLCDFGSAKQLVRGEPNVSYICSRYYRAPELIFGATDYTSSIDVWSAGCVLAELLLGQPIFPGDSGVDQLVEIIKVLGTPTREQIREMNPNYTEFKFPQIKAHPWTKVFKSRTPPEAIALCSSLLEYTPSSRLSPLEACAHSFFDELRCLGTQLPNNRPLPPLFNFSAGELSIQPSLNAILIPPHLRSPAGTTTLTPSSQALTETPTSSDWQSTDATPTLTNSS

| SMILES | IC50 [1] | IC50 [2] |
| --- | --- | --- |
| CC1(C)CC(=O)C2=C(C1)NC1=C(CN=N1)[C@@]21CCOC2(CCCC2)C1 [US20250313563, Compound 907326] | 100 to 1000 nM | 1000 to 5000 nM |
| CC1(C)CC(=O)C2=C(C1)NC1=C(CN=N1)C2(C)c1cc(Cl)cc(Cl)c1 (stereo unspecified) [US20250313563, Compound 789337] | 100 to 1000 nM | 1000 to 5000 nM |
| CCC1(c2cccc(N3CC4CCC(C4)C3)c2)C2=CN=NC2NC2=C1C(=O)CC(C)(C)C2 (stereo unspecified) [US20250313563, Compound 885099] | 100 to 1000 nM | 1000 to 5000 nM |
| CC1(C)CC(=O)C2=C(NC3=C(CN=N3)C23CCN(S(=O)(=O)c2ccccc2C(F)F)CC3)[C@@H]1F [US20250313563, Compound 951846] | < 100 nM | 100 to 1000 nM |
| Cn1nccc1-c1cccc2c1CCC[C@@]21C2=CN=NC2NC2=C1C(=O)CC(C)(C)C2 (stereo partly specified) [US20250313563, Compound 945551] | < 100 nM | < 100 nM |
| CC[C@]1(c2cccc(N3CCCC3)c2)C2=C(CC(C)(C)CC2=O)NC2N=NC(C)=C21 (stereo partly specified) [US20250313563, Compound 883875] | 100 to 1000 nM | 1000 to 5000 nM |
| CC1(C)CC(=O)C2=C(NC3=C(CN=N3)[C@]23CC[C@@H](C(F)(F)F)CC3)C1F (stereo partly specified) [US20250313563, Compound 917135] | < 100 nM | 100 to 1000 nM |
| CC1(C)CC(=O)C2=C(C1)NC1N=NC(CCC(F)(F)F)=C1[C@@]21CCc2c(F)cccc21 (stereo partly specified) [US20250313563, Compound 874323] | 1000 to 5000 nM | 1000 to 5000 nM |
| CCC1(c2cccc(S(C)(=O)=O)c2)C2=C(CC(C)(C)NC2=O)NC2N=NC(C(F)(F)F)=C21 (stereo unspecified) [US20250313563, Compound 947799] | < 100 nM | < 100 nM |
| CCN(c1cccc(C2(CC)C3=CN=NC3NC3=C2C(=O)CC(C)(C)C3)c1)c1ncccn1 (stereo unspecified) [US20250313563, Compound 919840] | < 100 nM | < 100 nM |
| CCC1(c2cccc(Br)c2)C2=CN=NC2NC2=C1C(=O)NC(C)(C)C2 (stereo unspecified) [US20250313563, Compound 913439] | < 100 nM | 100 to 1000 nM |
| CC1(C)CC(=O)C2=C(C1)NC1=C(CN=N1)[C@]21CCN(S(=O)(=O)c2ccccc2)C1 [US20250313563, Compound 943485] | < 100 nM and 100 to 1000 nM | < 100 nM and 1000 to 5000 nM |
| CCC1(c2cccc(C(F)(F)F)c2)C2=C(N=NC2)NC2=C1C(=O)N(Cc1ccccc1)C2C (stereo unspecified) [US20250313563, Compound 917162] | < 100 nM | 100 to 1000 nM |
| CC1(C)CC(=O)C2=C(C1)NC1=C(CN=N1)C21COC2(CN(C(=O)C(F)F)C2)C1 (stereo unspecified) [US20250313563, Compound 947485] | < 100 nM | < 100 nM |
| CCC1(c2cccc(C(F)F)c2)C2=CN=NC2NC2=C1C(=O)CC(C)(C)C2 (stereo unspecified) [US20250313563, Compound 819564] | < 100 nM | < 100 nM |
| CC1N=NC2=C1C(C)(c1cccc(C(F)(F)F)c1)C1=C(CC(C)(C)CC1=O)N2 (stereo unspecified) [US20250313563, Compound 811556] | < 100 nM | < 100 nM |
| CC[C@]1(c2cccc(C3=CNN4CC=CN=C34)c2)C2=CN=NC2NC2=C1C(=O)NC(C)(C)C2 (stereo partly specified) [US20250313563, Compound 949389] | 1000 to 5000 nM | > 5000 nM |
| CCn1ccc(S(=O)(=O)N2CCC3(CC2)C2=CN=NC2NC2=C3C(=O)NC(C)(C)C2)n1 (stereo unspecified) [US20250313563, Compound 947836] | < 100 nM | 100 to 1000 nM |
| CC[C@]1(c2cccc(-c3ccncc3OC3CC3)c2)C2=CN=NC2NC2=C1C(=O)NC(C)(C)C2 (stereo partly specified) [US20250313563, Compound 948643] | > 5000 nM | > 5000 nM |
| CC[C@@]1(c2cccc(-c3cc(C)nn3C)c2)C2=CN=NC2NC2=C1C(=O)CC(C)(C)[C@H]2F (stereo partly specified) [US20250313563, Compound 947656] | 100 to 1000 nM | > 5000 nM |
| CC[C@]1(c2cccc([C@@H]3CCOC(C)(C)C3)c2)C2=CN=NC2NC2=C1C(=O)CC(C)(C)C2 (stereo partly specified) [US20250313563, Compound 912089] | 100 to 1000 nM | 100 to 1000 nM |
| CC[C@]1(c2cccc(-c3ccnn3C)c2)C2=CN=NC2NC2=C1C(=O)N[C@@]1(CCOC1)C2 (stereo partly specified) [US20250313563, Compound 948017] | < 100 nM | < 100 nM |
| CC1(C)CC(=O)C2=C(C1)NC1=C(CN=N1)C21CN(c2ccncc2)C1 [US20250313563, Compound 912077] | > 5000 nM | > 5000 nM |
| CC1(C)CC(=O)C2=C(C1)NC1=C(CN=N1)C21COC2(CN(C(=O)CC3CC(F)(F)C3)C2)C1 (stereo unspecified) [US20250313563, Compound 947278] | < 100 nM | < 100 nM |
| CCC1(c2cccc(Oc3cncnc3)c2)C2=CN=NC2NC2=C1C(=O)CC(C)(C)C2 (stereo unspecified) [US20250313563, Compound 917212] | < 100 nM | 100 to 1000 nM |
| CC[C@]1(c2cccc(-c3cc(C)nn3C)c2)C2=C(N=NC2)NC2=C1C(=O)C(C)(C)C2 [US20250313563, Compound 950827] | > 5000 nM | > 5000 nM |
| CC[C@]1(c2cccc(-c3cc(C)ncc3F)c2)C2=C(CC(C)(C)NC2=O)NC2N=NC(C)=C21 (stereo partly specified) [US20250313563, Compound 949327] | 1000 to 5000 nM | > 5000 nM |

The next lines start with the values.

| IC50 [1] | IC50 [2] | SMILES |
| --- | --- | --- |
| < 100 nM | 100 to 1000 nM | CC[C@@]1(c2ccccc2)C2=CN=NC2NC2=C1C(=O)[C@H](C)C[C@H]2C (stereo partly specified) [US20250313563, Compound 865201] |
| < 100 nM | < 100 nM | CCC1(c2cccc(-c3cn(C)nc3C)c2)C2=C(CC(C)(C)CC2=O)NC2N=NC(C)=C21 (stereo unspecified) [US20250313563, Compound 884003] |
| 100 to 1000 nM | 1000 to 5000 nM | CC[C@]1(c2cccc(-c3cnn(C)c3)c2)C2=C(N=NC2)NC2=C1C(=O)C(C)(C)C2 [US20250313563, Compound 950819] |
| 100 to 1000 nM | 1000 to 5000 nM | CCC1(c2cccc(-c3ccnc(C)c3)c2)C2=C(N=NC2)NC2=C1C(=O)C(C)(C)C2 (stereo unspecified) [US20250313563, Compound 949840] |
| < 100 nM | < 100 nM | CC[C@@]1(c2cccc(-c3cnn(CCOC)c3)c2)C2=C(CC(C)(C)CC2=O)NC2N=NC(C)=C21 (stereo partly specified) [US20250313563, Compound 913027] |
| < 100 nM | < 100 nM | CC[C@]1(c2cccc(N(C)c3cncnc3)c2)C2=CN=NC2NC2=C1C(=O)CC(C)(C)C2 (stereo partly specified) [US20250313563, Compound 915400] |
| < 100 nM | < 100 nM | CC(C)Oc1ccc(S(=O)(=O)N2CCC3(CC2)C2=C(N=NC2)NC2=C3C(=O)CC(C)(C)C2)cc1 [US20250313563, Compound 945673] |
| < 100 nM | < 100 nM and 100 to 1000 nM | CC[C@@]1(c2cccc(C(C)C)c2)C2=C(CC(C)(C)NC2=O)NC2N=NC(C(F)(F)F)=C21 (stereo partly specified) [US20250313563, Compound 950494] |
| < 100 nM | 1000 to 5000 nM | CCC1(c2cccc(C(F)(F)F)c2)C2=CN=NC2NC2=C1C(=O)N(c1cnn(C)c1C)CC2 (stereo unspecified) [US20250313563, Compound 950612] |
| < 100 nM | < 100 nM | COCCn1cc(S(=O)(=O)N2CCC3(CC2)C2=C(N=NC2)NC2=C3C(=O)CC(C)(C)C2)cn1 [US20250313563, Compound 947477] |
| < 100 nM | < 100 nM | CCn1ccc(S(=O)(=O)N2CCC3(CC2)C2=C(N=NC2)NC2=C3C(=O)CC(C)(C)C2)n1 [US20250313563, Compound 945671] |
| < 100 nM | < 100 nM | CC1(C)CC(=O)C2=C(C1)NC1=C(CN=N1)C21CCN(S(=O)(=O)c2cnn3c2OCCC3)CC1 [US20250313563, Compound 947483] |
| < 100 nM | < 100 nM | CC(C)n1ccc(S(=O)(=O)N2CCC3(CC2)C2=C(N=NC2)NC2=C3C(=O)CC(C)(C)C2)n1 [US20250313563, Compound 947258] |
| < 100 nM | < 100 nM | CC[C@@]1(c2cccc(-c3ccncc3C)c2)C2=CN=NC2NC2=C1C(=O)N[C@]1(CCCOC1)C2 (stereo partly specified) [US20250313563, Compound 947910] |
| < 100 nM | 100 to 1000 nM | CCC1(c2cccc(NC(C)=O)c2)C2=CN=NC2NC2=C1C(=O)CC(C)(C)C2 (stereo unspecified) [US20250313563, Compound 877310] |
| 1000 to 5000 nM | 1000 to 5000 nM | CC[C@@]1(c2cccc(C(F)(F)F)c2)C2=C(CC(C)(C)CC2=O)NC2N=NC(Br)=C21 (stereo partly specified) [US20250313563, Compound 810464] |
| 100 to 1000 nM | 100 to 1000 nM | CC1(C)CC(=O)C2=C(C1)NC1=C(CN=N1)[C@]21C[C@@]2(CCN(CC(F)(F)F)C2)C1 [US20250313563, Compound 913138] |
| 1000 to 5000 nM | > 5000 nM | CC[C@]1(c2ccccc2)C2=CN=NC2NC2=C1C(=O)C[C@H](c1ccccc1)C2 (stereo partly specified) [US20250313563, Compound 791265] |
| < 100 nM | < 100 nM | CCn1nccc1S(=O)(=O)N1CCC2(CC1)C1=C(N=NC1)NC1=C2C(=O)CC(C)(C)C1 [US20250313563, Compound 945664] |
| < 100 nM | 100 to 1000 nM | CC[C@]1(c2cc(N(C)C(C)=O)ccc2F)C2=CN=NC2NC2=C1C(=O)CC(C)(C)C2 (stereo partly specified) [US20250313563, Compound 929450] |
| > 5000 nM | > 5000 nM | CC[C@]1(c2cccc(-c3ccnc(C)c3OC)c2)C2=CN=NC2NC2=C1C(=O)CC(C)(C)C2 (stereo partly specified) [US20250313563, Compound 946002] |
| < 100 nM and 100 to 1000 nM | < 100 nM and 1000 to 5000 nM | CC1(C)CC(=O)C2=C(C1)NC1=C(CN=N1)C21CCN(S(=O)(=O)c2cccc(Cl)c2)CC1 [US20250313563, Compound 947243] |
| < 100 nM | < 100 nM | CC1(C)CC(=O)C2=C(C1)NC1=C(CN=N1)C21CCN(S(=O)(=O)c2cnn(CCF)c2)CC1 [US20250313563, Compound 947903] |
| 1000 to 5000 nM | > 5000 nM | CC1(C)CC(=O)C2=C(C1)NC1=C(CN=N1)C2(C)c1cc(Cl)ccc1Cl (stereo unspecified) [US20250313563, Compound 806605] |
| 100 to 1000 nM | 1000 to 5000 nM | CCC1(c2cccc(C(C)(C)F)c2)C2=CN=NC2NC2=C1C(=O)N(C)CC2 (stereo unspecified) [US20250313563, Compound 913178] |
| < 100 nM | < 100 nM | CC(C)Oc1ccc(S(=O)(=O)N2CCC3(CC2)C2=C(N=NC2)NC2=C3C(=O)CC(C)(C)C2)cn1 [US20250313563, Compound 945676] |
